Data on three compounds can be found in US11415579B2, “Assay for measuring a rate of reaction between a target and a ligand candidate” (Imperial College Innovations Ltd., priority 2016, dated 2022).

The target of one experiment is T1, Cdk2(S181C) (C177A) (Homo sapiens, UniProt P24941, C177A/S181C).
T1 construct: poly-histidine; made in house; host or cells: E. coli
The experiment is described as follows: Kinetic thiol consumption assay with Cdk2 mutant S181C. Format: binding. More on the design: key to Rate enhancement, Cdk2 S181C: rate constant with Cdk2 ÷ rate constant with model thiol (fold). Conditions: additional mutation C177A; for Rate constant with Cdk2 S181C: Protein: Cdk2, cysteine position S181C, in h^-1. Put shortly: (§1)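 5 μM thiol, degassed phosphate pH 8, 2% v/v immobilized TCEP beads; 1 h RT; fluorescence ex 380/em 470 nm; normalized vs DMSO/thiol-only; first-order exponential decay fit → rate constant; Cdk2 k / model-thiol k = rate enhancement per acrylamide.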

For the next experiment, the target named is T2, Cdk2(H71C) (C177A) (Homo sapiens, UniProt P24941, C177A/H71C).
T2 construct: poly-histidine; made in house; host or cells: E. coli
In words: Kinetic thiol consumption assay with Cdk2 mutant H71C. The class given is binding. More on the design: key to Rate enhancement, Cdk2 H71C: rate constant with Cdk2 ÷ rate constant with model thiol (fold). As to conditions: additional mutation C177A; for Rate constant with Cdk2 H71C: Protein: Cdk2, cysteine position H71C, in h^-1. A digest of the protocol:
as §1

In the next experiment the target is T3, Cdk2(C177A, F80C) (Homo sapiens, UniProt P24941, C177A/F80C).
T3 construct: poly-histidine; made in house; host or cells: E. coli
The experiment is described as follows: Kinetic thiol consumption assay with Cdk2 mutant F80C, incl. kobs versus concentration (Kd, k2). Format: binding. More on the design: key to Rate enhancement, Cdk2 F80C: Cdk2 rate constant divided by model-thiol rate constant. As to conditions: additional mutation C177A; for Rate constant with Cdk2 F80C: Protein: Cdk2, cysteine position F80C, in h^-1. Put shortly:
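His-tagged Cdk2(C177A/F80C) from E. coli or model thiol, 5 μM in degassed phosphate buffer pH 8 with TCEP beads, reacted with acrylamide ligands; fluorescence (ex/em 380/470 nm) normalized to DMSO control and fitted to first-order decay for kobs. Kd and k2 obtained from hyperbolic fit of kobs versus ligand concentration.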

Experiment [1] is described as follows: Kinetic thiol consumption assay with model thiol glutathione. The class given is physicochemical. Set-up: Rate constant with glutathione (k(GSH)): unit not given here. Conditions: for Rate constant with glutathione (k(GSH)): 500 μM ligand, 5 μM thiol, phosphate buffer pH 8; for Rate constant with Glutathione: Protein: Glutathione, cysteine position NA, in h-1. Put shortly: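 First, 5 μM glutathione in degassed phosphate buffer (pH 8) receives immobilized TCEP beads (2% v/v). Then acrylamide is added and plates incubate 1 h at room temperature. Finally, fluorescence (380/470 nm) is normalized and fitted to first-order decay for rate constants.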

A further experiment has as its target T4, Cdk2(R122C) (C177A) (Homo sapiens, UniProt P24941, C177A/R122C).
T4 construct: poly-histidine; made in house; host or cells: E. coli
In words: Kinetic thiol consumption assay with Cdk2 mutant R122C. The class given is binding. Set-up: key to Rate enhancement, Cdk2 R122C: rate constant with Cdk2 ÷ rate constant with model thiol (fold). Conditions: additional mutation C177A; for Rate constant with Cdk2 R122C: Protein: Cdk2, cysteine position R122C, in h-1. Put shortly: as §1

For experiment [2], the target named is T5, human cyclin-dependent kinase 2 (Cdk2) (Homo sapiens, UniProt P24941).
T5 construct: poly-histidine; made in house; host or cells: E. coli
In words: Kinetic thiol consumption assay with wild type Cdk2 (C177). Set-up: key to Rate enhancement, Cdk2 WT: k(Cdk2) divided by k(model thiol); Rate constant with Cdk2 (k(Cdk2)): unit not given here. Format: binding. As to conditions: for Rate constant with Cdk2 (k(Cdk2)): 500 μM ligand, 5 μM thiol, phosphate buffer pH 8; for Rate enhancement, Cdk2 WT: no additional mutations; for Rate constant with Cdk2 WT: Protein: Cdk2, cysteine position WT, in h^-1; for k(Cdk2)/k(Cdk2_mut) rate enhancement: model thiol Cdk2[C177A, F80C, K278C]; for k(Cdk2)/k(GSH) rate enhancement: model thiol glutathione. Put shortly: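 His-tagged human Cdk2 (single surface cysteine C177), expressed in E. coli, or a model thiol at 5 μM in degassed phosphate buffer pH 8 was pre-treated with immobilized TCEP beads (2% v/v) before acrylamide addition. Fluorescence (ex/em 380/470 nm) was read after 1 h at room temperature, normalized to DMSO/thiol-only control and plotted versus time.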

Another experiment concerns the target T6, Cdk2[C177A, F80C, K278C] (Homo sapiens, UniProt P24941, C177A/F80C/K278C).
T6 construct: poly-histidine; made in house; host or cells: E. coli
The experiment is described as follows: Kinetic thiol consumption assay with mutant Cdk2 as model thiol. As to conditions: 500 μM ligand, 5 μM thiol, phosphate buffer pH 8. More on the design: unit not given here. Format: binding. Put shortly: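 Model thiol: His-tagged human Cdk2 C177A/F80C/K278C (two engineered surface cysteines), E. coli-expressed, 5 μM in degassed phosphate buffer pH 8 with immobilized TCEP beads (2% v/v). Fluorescence (ex/em 380/470 nm) followed over time at room temperature, normalized to DMSO/thiol control. First-order decay fit gives rate constants.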

The target in a further experiment is T7, Cdk2(T182C) (C177A) (Homo sapiens, UniProt P24941, C177A/T182C).
T7 construct: poly-histidine; made in house; host or cells: E. coli
The experiment is described as follows: Kinetic thiol consumption assay with Cdk2 mutant T182C. Format: binding. More on the design: key to Rate enhancement, Cdk2 T182C: rate constant with Cdk2 ÷ rate constant with model thiol (fold). Conditions: additional mutation C177A; for Rate constant with Cdk2 T182C: Protein: Cdk2, cysteine position T182C, in h^-1. A digest of the protocol:
as §1

The target of a further experiment is T8, Cdk2(S276C) (C177A) (Homo sapiens, UniProt P24941, C177A/S276C).
T8 construct: poly-histidine; made in house; host or cells: E. coli
In words: Kinetic thiol consumption assay with Cdk2 mutant S276C. More on the design: key to Rate enhancement, Cdk2 S276C: rate constant with Cdk2 ÷ rate constant with model thiol (fold). As to conditions: additional mutation C177A; for Rate constant with Cdk2 S276C: Protein: Cdk2, cysteine position S276C, in h^-1. Format: binding. Put shortly: as §1

The next experiment addresses T9, Cdk2(N272C) (C177A) (Homo sapiens, UniProt P24941, C177A/N272C).
T9 construct: poly-histidine; made in house; host or cells: E. coli
The experiment is described as follows: Kinetic thiol consumption assay with Cdk2 mutant N272C. The class given is binding. Set-up: key to Rate enhancement, Cdk2 N272: rate constant with Cdk2 ÷ rate constant with model thiol (fold). As to conditions: for Rate enhancement, Cdk2 N272: Cdk2 N272, additional mutation C177A; for Rate constant with Cdk2 N272C: Protein: Cdk2, cysteine position N272C, additional mutation C177A, in h^-1. A digest of the protocol: as §1

As for `C=CC(=O)N1CC(n2cccn2)C1` [CA-173], on Cdk2(S181C) (C177A), the “Rate enhancement, Cdk2 S181C” value was found to be 1.349 and the “Rate constant with Cdk2 S181C” value came out at 0.02111. In addition, at Cdk2(H71C) (C177A), the “Rate enhancement, Cdk2 H71C” value is given as 0.1755 and the “Rate constant with Cdk2 H71C” value came to 0.002746. Further, at Cdk2(C177A, F80C), the “Rate enhancement, Cdk2 F80C” value stood at 0.3401 and the “Rate constant with Cdk2 F80C” value was 0.005323. Besides, in experiment [1], the “Rate constant with glutathione (k(GSH))” value was 0.01577 and the “Rate constant with Glutathione” value amounted to 0.01565. Also, on Cdk2(R122C) (C177A), the “Rate enhancement, Cdk2 R122C” value is on record as 0.3379 and the “Rate constant with Cdk2 R122C” value was 0.005288. Also, in [2], the “Rate constant with Cdk2 (k(Cdk2))” value was determined as 0.00754; the “Rate enhancement, Cdk2 WT” value is 0.4816; the “Rate constant with Cdk2 WT” value came out at 0.007537; the “k(Cdk2)/k(Cdk2_mut) rate enhancement” value came out at 1.495. Also, the “k(Cdk2)/k(GSH) rate enhancement” value in [2] was 0.4779. Moreover, the “Rate constant with Cdk2[C177A, F80C, K278C] (k(Cdk2_mut))” value (shortened to “Rate constant … (k(Cdk2_mut))”) at Cdk2[C177A, F80C, K278C] was 0.00504. Also, on Cdk2(T182C) (C177A), the “Rate enhancement, Cdk2 T182C” value was determined as 2.778 and the “Rate constant with Cdk2 T182C” value came to 0.04347. For the same compound, on Cdk2(S276C) (C177A), the “Rate enhancement, Cdk2 S276C” value is 1.187 and the “Rate constant with Cdk2 S276C” value was 0.01857. At Cdk2(N272C) (C177A), the “Rate enhancement, Cdk2 N272” value is reported as 0.6511 and the “Rate constant with Cdk2 N272C” value is given as 0.01019.
As to `C=CC(=O)N(Cc1ccco1)Cc1cc2cc(C)ccc2o1` [CA-178], on Cdk2(S181C) (C177A), the “Rate enhancement, Cdk2 S181C” value stood at 0.8912 and the “Rate constant with Cdk2 S181C” value came to 0.1409. Moreover, on Cdk2(H71C) (C177A), the “Rate enhancement, Cdk2 H71C” value is on record as 5.546 and the “Rate constant with Cdk2 H71C” value was found to be 0.8769. Further, at Cdk2(C177A, F80C), the “Rate enhancement, Cdk2 F80C” value amounted to 1.581 and the “Rate constant with Cdk2 F80C” value is 0.2499. In [1], the “Rate constant with glutathione (k(GSH))” value amounted to 0.1415 and the “Rate constant with Glutathione” value was 0.1581. Besides, at Cdk2(R122C) (C177A), the “Rate enhancement, Cdk2 R122C” value is 1.616 and the “Rate constant with Cdk2 R122C” value was 0.2555. In [2], the “Rate constant with Cdk2 (k(Cdk2))” value amounted to 0.1507; the “Rate enhancement, Cdk2 WT” value stood at 0.9532; the “Rate constant with Cdk2 WT” value turned out to be 0.1507; the “k(Cdk2)/k(Cdk2_mut) rate enhancement” value was determined as 0.2468. In experiment [2], the “k(Cdk2)/k(GSH) rate enhancement” value was 1.065. Moreover, the “Rate constant … (k(Cdk2_mut))” value on Cdk2[C177A, F80C, K278C] was 0.6107. Also, at Cdk2(T182C) (C177A), the “Rate enhancement, Cdk2 T182C” value stood at 2.909 and the “Rate constant with Cdk2 T182C” value amounted to 0.4599. Moreover, on Cdk2(S276C) (C177A), the “Rate enhancement, Cdk2 S276C” value is 2.953 and the “Rate constant with Cdk2 S276C” value was 0.4669. Moreover, at Cdk2(N272C) (C177A), the “Rate enhancement, Cdk2 N272” value is reported as 3.356 and the “Rate constant with Cdk2 N272C” value came out at 0.5306.
On to `C=CC(=O)N1CCN(c2cc(N3CCOCC3)ncn2)CC1` [CA-179], for which, on Cdk2(S181C) (C177A), the “Rate enhancement, Cdk2 S181C” value is 2.608 and the “Rate constant with Cdk2 S181C” value stood at 0.01774. In addition, at Cdk2(H71C) (C177A), the “Rate enhancement, Cdk2 H71C” value is recorded as 1.062 and the “Rate constant with Cdk2 H71C” value was determined as 0.007227. On Cdk2(C177A, F80C), the “Rate enhancement, Cdk2 F80C” value amounted to 0.3927 and the “Rate constant with Cdk2 F80C” value amounted to 0.002671. In experiment [1], the “Rate constant with glutathione (k(GSH))” value was 0.00683 and the “Rate constant with Glutathione” value is 0.006802. In addition, on Cdk2(R122C) (C177A), the “Rate enhancement, Cdk2 R122C” value worked out at 0.6453 and the “Rate constant with Cdk2 R122C” value stood at 0.004389. Further, in experiment [2], the “Rate constant with Cdk2 (k(Cdk2))” value is listed as 0.0076; the “Rate enhancement, Cdk2 WT” value turned out to be 1.117; the “Rate constant with Cdk2 WT” value is reported as 0.007599; the “k(Cdk2)/k(Cdk2_mut) rate enhancement” value is recorded as 1.056. The “k(Cdk2)/k(GSH) rate enhancement” value in experiment [2] turned out to be 1.112. Besides, the “Rate constant … (k(Cdk2_mut))” value on Cdk2[C177A, F80C, K278C] is 0.00719. At Cdk2(T182C) (C177A), the “Rate enhancement, Cdk2 T182C” value turned out to be 7.042 and the “Rate constant with Cdk2 T182C” value came out at 0.0479. Moreover, at Cdk2(S276C) (C177A), the “Rate enhancement, Cdk2 S276C” value is on record as 1.169 and the “Rate constant with Cdk2 S276C” value came to 0.007953. At Cdk2(N272C) (C177A), the “Rate enhancement, Cdk2 N272” value is reported as 0.4 and the “Rate constant with Cdk2 N272C” value was found to be 0.002721.
